Results: paper PMC6340882, “Targeting protein kinase CK2 and CDK4/6 pathways with a multi-kinase inhibitor ON108110 suppresses pro-survival signaling and growth in mantle cell lymphoma and T-acute lymphoblastic leukemia” (Oncotarget, 2018)

Key:
[1] = Growth inhibition (GI50), Cell Titer Blue; assay type: cell-based, human; conditions: normal human peripheral blood mononuclear cells (hPBMC); hPBMC, Normal Human Peripharal Mononuclear Cells; 96 hrs post-treatment
Method: (§1) Cell lines were cultured in RPMI-1640 medium (Thermo Scientific) supplemented with 10% heat inactivated FBS and penicillin-streptomycin at 37°C under humidified conditions and 5% CO2. All cell lines tested negative for mycoplasma. […] Compounds were added 24 hrs post-plating at the indicated concentrations. Cell counts were determined from duplicate wells 96 hrs post-treatment using the Cell Titer Blue assay in conjunction with the GloMax plate reader (Promega).
(§2) Peripheral blood samples were obtained from patients at the Icahn School of Medicine at Mount Sinai with informed and written consent for tissue banking following a protocol approved by the Institutional Review Board (MSSM IRB#11-1669) and in accordance with the Declaration of Helsinki. Peripheral blood mononuclear cells were pelleted by low-speed centrifugation, resuspended in media composed of 90% fetal bovine serum (FBS) and 10% DMSO (Sigma), frozen slowly in the vapor phase of liquid nitrogen in multiple cryovials, and stored in liquid nitrogen.

hPBMC = experiment: Growth inhibition (GI50), Cell Titer Blue; assay type: cell-based, human; conditions: normal human cells (Table 1)
Method: as §1, §2

CK2α1 = CK2α1 (Homo sapiens, UniProt P68400); experiment: In vitro kinase assay with recombinant protein (32P-ATP, filtermat); assay type: biochemical; conditions: recombinant CK2α1, independent in vitro kinase assay, 20μM ATP
Chain of CK2α1 (P68400 whole entry): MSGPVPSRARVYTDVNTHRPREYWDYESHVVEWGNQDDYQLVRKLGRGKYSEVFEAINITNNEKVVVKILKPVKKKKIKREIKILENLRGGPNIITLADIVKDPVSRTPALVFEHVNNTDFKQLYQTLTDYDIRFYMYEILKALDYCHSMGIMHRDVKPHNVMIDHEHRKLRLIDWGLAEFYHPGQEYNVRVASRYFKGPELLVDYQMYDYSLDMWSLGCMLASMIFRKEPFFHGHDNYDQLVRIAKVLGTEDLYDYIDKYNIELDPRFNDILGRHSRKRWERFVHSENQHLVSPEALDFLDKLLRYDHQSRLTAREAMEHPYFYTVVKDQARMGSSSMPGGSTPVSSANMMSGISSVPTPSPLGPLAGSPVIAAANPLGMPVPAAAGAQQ
Method: (§3) (B) Structure of ON108110. (C) Calculation of IC50 values against CDK4 and CDK6 and (D) CK2α1 and CK2α2 by ON108110. Recombinant proteins were incubated with the indicated concentrations of ON108110 and subjected to in vitro kinase assays as described in the materials and methods section. Values obtained were plotted as a function of log drug concentration. IC50 values were determined by performing sigmoidal non-linear regression with a variable slope.
(§4) Recombinant CDK4/CYCLIN D1 or CK2α1 were mixed with their respective synthetic peptide substrates (10ng) and incubated with DMSO or increasing concentrations of ON108110 in 20μl kinase buffer [50mM Tris-HCl (pH 7.5), 10mM MgCl2, 1mM EGTA, 2mM DTT and 0.01% NP-40] for 30 min. at room temperature. Kinase reactions were carried out for 20 min at 30°C in the presence of 5μl of substrate-ATP mixture (1μg RB, 20μM ATP, 20μCi γ-^32P-ATP). […] The filtermat was air-dried, blocked with methanol for 2 minutes followed by three washes with 75mM phosphoric acid. The filtermat was then air-dried and analyzed using a phosphoimager.

CDK4 = CDK4 (Homo sapiens, UniProt P11802); experiment: as above; assay type: biochemical; conditions: recombinant CDK4, independent in vitro kinase assay, 20μM ATP
Chain of CDK4 (P11802 whole entry): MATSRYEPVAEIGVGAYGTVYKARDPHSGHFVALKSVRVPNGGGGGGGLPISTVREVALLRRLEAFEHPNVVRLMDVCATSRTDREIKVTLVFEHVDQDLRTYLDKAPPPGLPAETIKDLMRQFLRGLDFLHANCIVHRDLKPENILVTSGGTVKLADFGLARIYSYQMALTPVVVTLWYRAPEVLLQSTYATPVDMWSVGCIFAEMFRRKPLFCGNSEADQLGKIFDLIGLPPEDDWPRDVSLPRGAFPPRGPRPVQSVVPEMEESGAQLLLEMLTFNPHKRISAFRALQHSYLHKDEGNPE
Chain of CDK4 (P24385 whole entry partner): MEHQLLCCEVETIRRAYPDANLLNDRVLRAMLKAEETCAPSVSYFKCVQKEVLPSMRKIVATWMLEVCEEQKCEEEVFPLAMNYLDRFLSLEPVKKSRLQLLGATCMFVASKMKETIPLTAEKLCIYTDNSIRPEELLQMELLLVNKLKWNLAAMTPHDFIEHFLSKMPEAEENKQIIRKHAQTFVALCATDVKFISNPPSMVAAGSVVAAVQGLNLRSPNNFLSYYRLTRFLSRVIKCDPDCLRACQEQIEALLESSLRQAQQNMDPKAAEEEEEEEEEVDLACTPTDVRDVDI
Method: as §3, §4

CK2α2 = CK2α2 (Homo sapiens, UniProt P19784); experiment: as above; assay type: biochemical; conditions: recombinant CK2α2, independent in vitro kinase assay, 20μM ATP
Chain of CK2α2 (P19784 whole entry): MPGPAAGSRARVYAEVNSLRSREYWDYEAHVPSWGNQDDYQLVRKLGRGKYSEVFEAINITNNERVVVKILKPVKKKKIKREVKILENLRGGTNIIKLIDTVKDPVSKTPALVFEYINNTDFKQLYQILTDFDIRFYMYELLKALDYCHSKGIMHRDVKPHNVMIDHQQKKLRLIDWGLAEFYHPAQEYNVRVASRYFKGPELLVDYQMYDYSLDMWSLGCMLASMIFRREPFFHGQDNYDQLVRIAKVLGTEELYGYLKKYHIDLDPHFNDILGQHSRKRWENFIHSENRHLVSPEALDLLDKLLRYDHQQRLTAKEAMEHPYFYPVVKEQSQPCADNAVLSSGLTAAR
Method: as §3, §4

[2] = system: CDK4/6-specific RB phosphorylation in Granta-519 and CEM cells; experiment: Western blot of phosphorylated RB (Ser780 and Ser 807/811); assay type: cell-based, human; conditions: increasing concentrations, 24 hours
Method: Figure 6 Inhibition of CK2/CDK4 mediated signaling by ON108110 (A) CEM and (B) Granta-519 cells were treated with increasing concentrations of ON 108110 for 24 hours. Whole cell extracts were subjected to western blot analysis using antibodies directed against the indicated proteins. GAPDH is shown as a loading control.
Cells were grown as indicated, lysed in lysis buffer (20mM Tris, pH 8.0/ 137mM NaCl/ 10% glycerol/ 1% NP-40) supplemented with 1X protease and phosphatase inhibitor cocktail on ice and resolved by SDS-PAGE. The proteins were transferred to a nitrocellulose membrane and subjected to Western blot analysis using the indicated antibodies. Proteins were visualized using an Odyssey imaging system (LI-COR Biosciences).

[3] = system: MCL and ALL cell lines as well as normal PBMCs; experiment: GI50 of MCL and ALL cell lines compared to normal PBMCs (Figure 4C); assay type: cell-based, human; conditions: MCL and T-ALL cell lines vs PBMCs in vitro, 72 hours post-treatment
Method: Figure 4 CK2 and CDK4 expression in cell lines and primary samples (A) mRNA levels of CK2 subunits in a panel of MCL and T-ALL leukemic cell lines and normal human PBMCs. (B) Protein levels of CK2 subunits and pRB^Ser807/811 in a panel of MCL and T-ALL leukemic cell lines and normal human PBMCs. (C) Calculation of GI50 values against of ON108110 against MCL and ALL cell lines as well as normal PBMCs 72 hours post-treatment.
Cell lines were cultured in RPMI-1640 medium (Thermo Scientific) supplemented with 10% heat inactivated FBS and penicillin-streptomycin at 37°C under humidified conditions and 5% CO2. All cell lines tested negative for mycoplasma. […] Compounds were added 24 hrs post-plating at the indicated concentrations. […]

## CC(=O)Oc1ccc(/C=C2\Sc3ccc(F)cc3NC2=O)cc1[N+](=O)[O-] [ON108110]
[1]
  GI50 at 96 h: > 5000 nM
hPBMC
  cytotoxicity towards normal human cells: little or no cytotoxicity
CK2α1
  IC50: 3 nM
CDK4
  IC50: 6 nM
CK2α2
  IC50: 2 nM
[2]
  CDK4/6-specific RB phosphorylation (Ser780 and Ser 807/811): concentration-dependent inhibition
[3]
  fold more sensitive compared to PBMCs (IC50 values): > 100 fold
